Laboratory results from patent US8541449B2, “Substituted isoquinolines and isoquinolinones as Rho kinase inhibitors” (Sanofi, priority 2008, dated 2013).

Assays:
Format in all cases: biochemical
[1] = molecular target: T1, recombinant human PKG1-beta (Homo sapiens, UniProt Q13976); experiment: Determination of Protein Kinase G inhibition (Caliper peptide phosphorylation assay); details: recombinant human PKG1-beta versus ROCK II
T1 construct: Active recombinant human PKG1-beta (full-length, with N-terminal His-tag); His-tag (N); purchased Millipore GmbH, Schwalbach, Germany
T1 sequence (Q13976 1-686 isoform Q13976-2): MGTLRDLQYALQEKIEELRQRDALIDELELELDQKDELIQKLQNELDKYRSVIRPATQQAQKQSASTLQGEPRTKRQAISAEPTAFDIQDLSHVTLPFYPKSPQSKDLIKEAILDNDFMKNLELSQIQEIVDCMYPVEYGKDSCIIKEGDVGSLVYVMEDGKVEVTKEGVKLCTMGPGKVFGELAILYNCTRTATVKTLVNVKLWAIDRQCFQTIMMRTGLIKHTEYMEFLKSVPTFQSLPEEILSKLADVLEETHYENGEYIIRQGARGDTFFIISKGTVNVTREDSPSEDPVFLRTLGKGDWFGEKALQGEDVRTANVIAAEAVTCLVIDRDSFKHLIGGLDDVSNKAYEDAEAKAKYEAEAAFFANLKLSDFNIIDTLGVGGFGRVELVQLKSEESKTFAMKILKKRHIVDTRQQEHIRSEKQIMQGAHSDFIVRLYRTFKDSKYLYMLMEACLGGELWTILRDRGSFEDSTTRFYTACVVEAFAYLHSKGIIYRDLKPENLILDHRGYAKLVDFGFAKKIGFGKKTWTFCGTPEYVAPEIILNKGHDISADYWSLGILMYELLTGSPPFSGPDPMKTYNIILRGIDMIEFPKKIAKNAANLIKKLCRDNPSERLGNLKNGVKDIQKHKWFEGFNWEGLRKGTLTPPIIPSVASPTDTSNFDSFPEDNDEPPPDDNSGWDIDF
In short: (§1)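 Full-length His-tagged PKG1-beta (150 ng/ml working) or His-tagged PKA residues 1-351 (30 ng/ml working) was mixed with compound in pH 7.4 Tris/MgCl2/DTT buffer. Fluorescein-peptide substrate and ATP (3 μM and 120 μM working) were then added for 60 min at 32 °C before an EDTA stop. Phosphopeptide was separated electrophoretically on a Caliper instrument to derive IC50.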

[2] = molecular target: T2, human recombinant ROCK II (Homo sapiens, UniProt O75116); experiment: Determination of Rho kinase inhibition (Caliper peptide phosphorylation assay); details: 60 min at 32° C., negative decadal logarithm of the IC50
T2 construct: N-terminal His6-tagged recombinant human ROCK-II residues 11-552; His6 (N); purchased Millipore GmbH, Schwalbach, Germany
T2 sequence (O75116 11-552): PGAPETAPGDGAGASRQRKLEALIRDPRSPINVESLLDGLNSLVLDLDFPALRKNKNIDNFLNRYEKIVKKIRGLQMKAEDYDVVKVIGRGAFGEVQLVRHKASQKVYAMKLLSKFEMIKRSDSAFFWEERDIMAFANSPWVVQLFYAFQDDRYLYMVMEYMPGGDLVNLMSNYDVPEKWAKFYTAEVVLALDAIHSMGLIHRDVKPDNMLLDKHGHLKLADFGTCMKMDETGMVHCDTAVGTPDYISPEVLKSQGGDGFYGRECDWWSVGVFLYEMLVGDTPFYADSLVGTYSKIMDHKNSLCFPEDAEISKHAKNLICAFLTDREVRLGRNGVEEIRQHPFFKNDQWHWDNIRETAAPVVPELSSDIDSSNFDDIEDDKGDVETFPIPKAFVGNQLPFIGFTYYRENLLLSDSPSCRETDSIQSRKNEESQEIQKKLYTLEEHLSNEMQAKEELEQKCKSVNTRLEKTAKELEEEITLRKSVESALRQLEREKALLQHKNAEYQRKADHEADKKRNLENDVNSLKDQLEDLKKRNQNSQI
In short: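 His6-tagged human ROCK II (residues 11-552) phosphorylated a fluorescein-labelled peptide for 60 min at 32° C in Tris-HCl pH 7.4 with MgCl2, DTT and BSA, using 3 μM peptide and 120 μM ATP as diluted stocks. EDTA-stopped; phosphopeptide separated and detected by Caliper mobility shift; IC50 determined.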

recombinant human PKA = molecular target: T3, recombinant human PKA (Homo sapiens, UniProt P17612); experiment: Determination of Protein Kinase A inhibition (Caliper peptide phosphorylation assay); details: recombinant human PKA versus ROCK II
T3 construct: Active recombinant human PKA (residues 1-351, N-terminal His-tag); His-tag (N); purchased Invitrogen, Karlsruhe, Germany
In short: as §1

| SMILES | Selectivity against PKG [1] | pIC50 [2] | Selectivity against PKA (recombinant human PKA) |
| --- | --- | --- | --- |
| CCC(N)[C@]1(c2ccc(F)c(F)c2)CC[C@H](Oc2cc3cc[nH]c(=O)c3cc2Cl)CC1 (stereo partly drawn) [Example 59, cis-6-[4-(1-Amino-propyl)-4-(3,4-difluoro-phenyl)-cyclohexyloxy]-7-chloro-2H-isoquinolin-1-one] | >300 | +++++++ (8.0≦pIC50) | >1000 |
| CCC(N)[C@]1(c2ccccc2C)CC[C@H](Oc2cc3cc[nH]c(=O)c3cc2Cl)CC1 (stereo partly drawn) [Example 60, cis-6-[4-(1-Amino-propyl)-4-o-tolyl-cyclohexyloxy]-7-chloro-2H-isoquinolin-1-one] | >100 | +++++++ (8.0≦pIC50) | >1000 |
| CCC(N)[C@]1(c2ccccc2OC(F)(F)F)CC[C@H](Oc2cc3cc[nH]c(=O)c3cc2Cl)CC1 (stereo partly drawn) [Example 61, cis-6-[4-(1-Amino-propyl)-4-(2-trifluoromethoxy-phenyl)-cyclohexyloxy]-7-chloro-2H-iso quinolin-1-one] | >1 | +++++ (6.0≦pIC50<7.0) | >10 |
| CCC(N)[C@]1(c2ccc(F)c(OC)c2)CC[C@H](Oc2cc3cc[nH]c(=O)c3cc2Cl)CC1 (stereo partly drawn) [Example 62, cis-6-[4-(1-Amino-propyl)-4-(4-fluoro-3-methoxy-phenyl)-cyclohexyloxy]-7-chloro-2H-iso quinolin-1-one] | >300 | +++++++ (8.0≦pIC50) | >1000 |
| CCOc1cccc([C@]2(C(N)CC)CC[C@@H](Oc3cc4cc[nH]c(=O)c4cc3Cl)CC2)c1 (stereo partly drawn) [Example 63, cis-6-[4-(1-Amino-propyl)-4-(3-ethoxy-phenyl)-cyclohexyloxy]-7-chloro-2H-isoquinolin-1-one] | >300 | +++++++ (8.0≦pIC50) | >1000 |
| CCC(N)[C@]1(c2cc(F)cc(F)c2)CC[C@H](Oc2cc3cc[nH]c(=O)c3cc2F)CC1 (stereo partly drawn) [Example 66] | >10 | +++++ (6.0≦pIC50<7.0) | >10 |
| CCC(N)[C@]1(c2ccccc2OC)CC[C@H](Oc2cc3cc[nH]c(=O)c3cc2Cl)CC1 (stereo partly drawn) [Example 69, cis-6-[4-(1-Amino-propyl)-4-(2-methoxy-phenyl)-cyclohexyloxy]-7-chloro-2H isoquinolin-1-one] | >300 | +++++++ (8.0≦pIC50) | >1000 |
| CCC(N)[C@]1(c2ccc(OC(F)(F)F)cc2)CC[C@H](Oc2cc3cc[nH]c(=O)c3cc2Cl)CC1 (stereo partly drawn) [Example 70, cis-6-[4-(1-Amino-propyl)-4-(4-trifluoro-methoxy-phenyl)-cyclohexyloxy]-7-chloro-2H-isoquinolin-1-one] | >1000 | +++++++ (8.0≦pIC50) | >1000 |
| CC(C)(N)[C@]1(c2ccc(F)cc2)CC[C@H](Oc2cc3cc[nH]c(=O)c3cc2Cl)CC1 [Example 77, cis-6-[4-(1-Amino-1-methyl-ethyl)-4-(4-fluoro-phenyl)-cyclohexyloxy]-7-chloro-2H-isoquinolin-1-one] | >300 | +++++++ (8.0≦pIC50) | >1000 |
| NC(C1CC1)[C@]1(c2ccc(F)cc2)CC[C@H](Oc2cc3cc[nH]c(=O)c3cc2Cl)CC1 (stereo partly drawn) [Example 82, cis-6-[4-(Amino-cyclopropyl-methyl)-4-(4-fluoro-phenyl)-cyclohexyloxy]-7-chloro-2H-isoquinolin-1-one] | >1000 | +++++++ (8.0≦pIC50) | >1000 |
| CCC(N)[C@]1(c2cccc(C(F)(F)F)c2)CC[C@H](Oc2cc3cc[nH]c(=O)c3cc2Cl)CC1 (stereo partly drawn) [Example 83, cis-6-[4-(1-Amino-propyl)-4-(3-trifluoromethyl-phenyl)-cyclohexyloxy]-7-chloro-2H-isoquinolin-1-one] | >10 | +++++ (6.0≦pIC50<7.0) | >100 |
| CCC(N)[C@]1(c2cccc(OC(F)(F)F)c2)CC[C@H](Oc2cc3cc[nH]c(=O)c3cc2Cl)CC1 (stereo partly drawn) [Example 84, cis-6-[4-(1-Amino-propyl)-4-(3-trifluoromethoxy-phenyl)-cyclohexyloxy]-7-chloro-2H-iso quinolin-1-one] | >10 | +++++ (6.0≦pIC50<7.0) | >100 |
| CCC(N)[C@]1(c2cccc(OC(F)(F)F)c2)CC[C@H](Oc2cc3cc[nH]c(=O)c3cc2C)CC1 (stereo partly drawn) [Example 85, cis-6-[4-(1-Amino-propyl)-4-(3-trifluoro-methoxy-phenyl)-cyclo-hexyloxy]-7-methyl-2H-iso quinolin-1-one] | >10 | +++++ (6.0≦pIC50<7.0) | >100 |
| CCC(N)[C@]1(c2cccc(C(F)(F)F)c2)CC[C@H](Oc2cc3cc[nH]c(=O)c3cc2C)CC1 (stereo partly drawn) [Example 86, cis-6-[4-(1-Amino-propyl)-4-(3-trifluoromethyl-phenyl)-cyclohexyloxy]-7-methyl-2H-iso quinolin-1-one] | >10 | +++++ (6.0≦pIC50<7.0) | >10 |
| CCC(N)[C@]1(c2ccccc2)CC[C@H](Oc2cc3cc[nH]c(=O)c3cc2F)CC1 (stereo partly drawn) [Example 87, cis-6-[4-(1-Amino-propyl)-4-phenyl-cyclohexyloxy]-7-fluoro-2H-iso quinolin-1-one] | >100 | ++++++ (7.0≦pIC50<8.0) | >1000 |
| CCC(N)[C@]1(c2ccccc2)CC[C@H](Oc2c(F)cc3c(=O)[nH]ccc3c2C)CC1 (stereo partly drawn) [Example 88, cis-6-[4-(1-Amino-propyl)-4-phenyl-cyclohexyloxy]-7-fluoro-5-methyl-2H-isoquinolin-1-one] | >10 | +++++ (6.0≦pIC50<7.0) | >10 |
| CCC(N)[C@]1(c2ccc(C#N)cc2)CC[C@H](Oc2cc3cc[nH]c(=O)c3cc2Cl)CC1 (stereo partly drawn) [Example 97, cis-4-[1-(1-Amino-propyl)-4-(7-chloro-1-oxo-1,2-dihydro-isoquinolin-6-yloxy)-cyclohexyl]benzonitrile] | >300 | +++++++ (8.0≦pIC50) | >1000 |
| CCC(N)[C@]1(c2cccc(S(C)(=O)=O)c2)CC[C@H](Oc2cc3cc[nH]c(=O)c3cc2Cl)CC1 (stereo partly drawn) [Example 99, cis-6-[4-(1-Amino-propyl)-4-(3-methanesulfonyl-phenyl)-cyclohexyloxy]-7-chloro-2H-isoquinolin-1-one] | >100 | +++++++ (8.0≦pIC50) | >1000 |
| CCC(N)[C@@]1(c2ccccc2)C[C@@H]2C[C@H]1CC2Oc1cc2cc[nH]c(=O)c2cc1Cl (stereo partly drawn) [Example 100, 6-[(1S,4S,5S)-5-(1-Amino-propyl)-5-phenyl-bicyclo[2.2.1]hept-2-yloxy]-7-chloro-2H-isoquinolin-1-one] | >1000 | +++++++ (8.0≦pIC50) | >1000 |
| CC(N)C[C@]1(c2ccc(F)cc2)CC[C@H](Oc2cc3cc[nH]c(=O)c3cc2Cl)CC1 (stereo partly drawn) [Example 109, cis-6-[4-(2-Amino-propyl)-4-(4-fluoro-phenyl)-cyclohexyloxy]-7-chloro-2H-isoquinolin-1-one] | >100 | ++++++ (7.0≦pIC50<8.0) | >300 |
